Laboratory results: patent US20100267561A1, “HERBICIDAL PYRIDAZINONE DERIVATIVES” (priority 2007, published 2010)

Experiments:
Assay type in all cases: in vivo
[1] = tested on: winter barley (Hordeum vulgare); experiment: Test B postemergence plant response; conditions: for Barley plant response rating: 8 g ai/ha, postemergence, 0-100 scale; for Plant response rating, Barley: Postemergence, scale 0 to 100, 0 no effect, 100 complete control
Summary of the method: (§1)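 Emerged plants, 1- to 4-leaf stage, treated; greenhouse 13–15 d; eye-scored vs untreated controls (0–100 scale).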

[2] = tested on: windgrass (Apera spica-venti); experiment: Test B postemergence plant response; conditions: for Windgrass plant response rating: 8 g ai/ha, postemergence, 0-100 scale; for Plant response rating, Windgrass: Postemergence
Summary of the method: as §1

[3] = tested on: canarygrass (Phalaris minor); experiment: Test B postemergence plant response; conditions: for Canarygrass plant response rating: 8 g ai/ha, postemergence, 0-100 scale; for Plant response rating, Canarygrass: Postemergence
Summary of the method: as §1

[4] = tested on: chickweed (Stellaria media); experiment: Test B postemergence plant response; conditions: for Chickweed plant response rating: 8 g ai/ha, postemergence, 0-100 scale; for Plant response rating, Chickweed: Postemergence
Summary of the method: as §1

[5] = tested on: velvetleaf (Abutilon theophrasti); experiment: Test A pre-/postemergence plant response
Summary of the method: (§2)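 Soil: loam blended with sand. Formulation: non-phytotoxic solvent mixture plus surfactant, applied as preemergence directed soil spray and as postemergence spray. Scoring: visual, 0 no effect to 100 complete control, roughly 10 days post-treatment in greenhouse.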

[6] = tested on: morningglory (Ipomoea coccinea); experiment: Test A pre-/postemergence plant response
Summary of the method: as §2

[7] = tested on: large crabgrass (Digitaria sanguinalis); experiment: Test A pre-/postemergence plant response
Summary of the method: as §2

[8] = tested on: pigweed (Amaranthus retroflexus); experiment: Test A pre-/postemergence plant response
Summary of the method: as §2

[9] = tested on: wheat (Triticum aestivum); experiment: Test A pre-/postemergence plant response
Summary of the method: as §2

[10] = tested on: barnyardgrass (Echinochloa crus-galli); experiment: Test A pre-/postemergence plant response
Summary of the method: as §2

[11] = tested on: giant foxtail (Setaria faberi); experiment: Test A pre-/postemergence plant response
Summary of the method: as §2

[12] = tested on: umbrella sedge (Cyperus difformis); experiment: Test B flooded paddy test plant response
Summary of the method: (§3)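 Paddy-water application to 2-leaf plants in pots held under 3 cm of flooding; response is a 0–100 visual control rating against controls after 13 to 15 days, and a dash marks a missing result.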

[13] = tested on: ducksalad (Heteranthera limosa); experiment: Test B flooded paddy test plant response
Summary of the method: as §3

[14] = tested on: barnyardgrass (Echinochloa crus-galli); experiment: Test B flooded paddy test plant response
Summary of the method: as §3

[15] = 62 g ai/ha, scale 0 to 100, 0 no effect, 100 complete control
[16] = Postemergence, 31 g ai/ha, 0 to 100 scale, 0 no effect, 100 complete control
[17] = Postemergence, 125 g ai/ha, 0 to 100 scale, 0 no effect, 100 complete control
[18] = Preemergence, 125 g ai/ha, 0 to 100 scale (0 no effect, 100 complete control)
[19] = Preemergence, 31 g ai/ha, 0 to 100 scale, 0 is no effect, 100 is complete control
[20] = Flood (flooded paddy test), 62 g ai/ha, scale 0 to 100, 0 no effect, 100 complete control
[21] = Flood (flooded paddy test), 250 g ai/ha, scale 0 to 100, 0 no effect, 100 complete control
[22] = Flood (flooded paddy test), 125 g ai/ha, scale 0 to 100, 0 no effect, 100 complete control
[23] = Flood, 31 g ai/ha, scale 0 to 100

SMILES: Cc1cc(-c2ccc(Cl)cc2)nn1-c1c(OC(=O)c2cccs2)cnn(C)c1=O [Compound 52]
- Barley plant response rating [1]: 0
- Plant response rating, Barley ([1]; 16 g ai/ha): 0
- Plant response rating, Barley ([1]; 31 g ai/ha): 0
- Plant response rating, Barley ([1]; 62 g ai/ha): 0
- Windgrass plant response rating [2]: 0
- Plant response rating, Windgrass ([2]; 16 g ai/ha, scale 0 to 100): 0
- Plant response rating, Windgrass ([2]; 31 g ai/ha, scale 0 to 100): 60
- Plant response rating, Windgrass [2, 15]: 80
- Canarygrass plant response rating [3]: 0
- Plant response rating, Canarygrass ([3]; 16 g ai/ha, scale 0 to 100): 0
- Plant response rating, Canarygrass ([3]; 31 g ai/ha, scale 0 to 100): 0
- Plant response rating, Canarygrass [3, 15]: 5
- Chickweed plant response rating [4]: 0
- Plant response rating, Chickweed ([4]; 16 g ai/ha, scale 0 to 100): 0
- Plant response rating, Chickweed ([4]; 31 g ai/ha, scale 0 to 100): 0
- Plant response rating, Chickweed [4, 15]: 0
- Plant response rating, Velvetleaf [5, 16]: 0
- Plant response rating, Velvetleaf [5, 17]: 20
- Plant response rating, Velvetleaf [5, 18]: 0
- Plant response rating, Morningglory [6, 16]: 0
- Plant response rating, Morningglory [6, 17]: 0
- Plant response rating, Morningglory [6, 19]: 0
- Plant response rating, Morningglory [6, 18]: 20
- Plant response rating, Crabgrass, Large [7, 16]: 60
- Plant response rating, Crabgrass, Large [7, 17]: 90
- Plant response rating, Crabgrass, Large [7, 19]: 30
- Plant response rating, Crabgrass, Large [7, 18]: 100
- Plant response rating, Pigweed [8, 16]: 0
- Plant response rating, Pigweed [8, 17]: 0
- Plant response rating, Pigweed [8, 19]: 0
- Plant response rating, Pigweed [8, 18]: 0
- Plant response rating, Wheat [9, 16]: 30
- Plant response rating, Wheat [9, 17]: 60
- Plant response rating, Wheat [9, 19]: 10
- Plant response rating, Wheat [9, 18]: 80
- Plant response rating, Barnyardgrass [10, 16]: 80
- Plant response rating, Barnyardgrass [10, 17]: 100
- Plant response rating, Barnyardgrass [10, 19]: 70
- Plant response rating, Barnyardgrass [10, 18]: 100
- Plant response rating, Foxtail, Giant [11, 16]: 80
- Plant response rating, Foxtail, Giant [11, 17]: 90
- Plant response rating, Foxtail, Giant [11, 19]: 100
- Plant response rating, Foxtail, Giant [11, 18]: 100
- Plant response rating, Sedge, Umbrella [12, 20]: 0
- Plant response rating, Sedge, Umbrella [12, 21]: 0
- Plant response rating, Ducksalad [13, 20]: 0
- Plant response rating, Ducksalad [13, 21]: 0
- Plant response rating, Barnyardgrass [14, 20]: 15
- Plant response rating, Barnyardgrass [14, 21]: 75

SMILES: CCOC(=O)Oc1cnn(C)c(=O)c1-n1nc(-c2ccc(Cl)cc2)cc1C [Compound 53]
- Barley plant response rating [1]: 0
- Plant response rating, Barley ([1]; 16 g ai/ha): 0
- Plant response rating, Barley ([1]; 31 g ai/ha): 0
- Plant response rating, Barley ([1]; 62 g ai/ha): 0
- Windgrass plant response rating [2]: 0
- Plant response rating, Windgrass ([2]; 16 g ai/ha, scale 0 to 100): 20
- Plant response rating, Windgrass ([2]; 31 g ai/ha, scale 0 to 100): 40
- Plant response rating, Windgrass [2, 15]: 60
- Canarygrass plant response rating [3]: 0
- Plant response rating, Canarygrass ([3]; 16 g ai/ha, scale 0 to 100): 0
- Plant response rating, Canarygrass ([3]; 31 g ai/ha, scale 0 to 100): 0
- Plant response rating, Canarygrass [3, 15]: 0
- Chickweed plant response rating [4]: 0
- Plant response rating, Chickweed ([4]; 16 g ai/ha, scale 0 to 100): 0
- Plant response rating, Chickweed ([4]; 31 g ai/ha, scale 0 to 100): 0
- Plant response rating, Chickweed [4, 15]: 0
- Plant response rating, Velvetleaf [5, 16]: 0
- Plant response rating, Velvetleaf [5, 17]: 0
- Plant response rating, Velvetleaf [5, 19]: 0
- Plant response rating, Velvetleaf [5, 18]: 0
- Plant response rating, Morningglory [6, 16]: 0
- Plant response rating, Morningglory [6, 17]: 20
- Plant response rating, Morningglory [6, 19]: 0
- Plant response rating, Morningglory [6, 18]: 0
- Plant response rating, Crabgrass, Large [7, 16]: 80
- Plant response rating, Crabgrass, Large [7, 17]: 100
- Plant response rating, Crabgrass, Large [7, 19]: 90
- Plant response rating, Crabgrass, Large [7, 18]: 100
- Plant response rating, Pigweed [8, 16]: 0
- Plant response rating, Pigweed [8, 17]: 0
- Plant response rating, Pigweed [8, 19]: 0
- Plant response rating, Pigweed [8, 18]: 0
- Plant response rating, Wheat [9, 16]: 20
- Plant response rating, Wheat [9, 17]: 70
- Plant response rating, Wheat [9, 19]: 50
- Plant response rating, Wheat [9, 18]: 90
- Plant response rating, Barnyardgrass [10, 16]: 90
- Plant response rating, Barnyardgrass [10, 17]: 100
- Plant response rating, Barnyardgrass [10, 19]: 100
- Plant response rating, Barnyardgrass [10, 18]: 100
- Plant response rating, Foxtail, Giant [11, 16]: 90
- Plant response rating, Foxtail, Giant [11, 17]: 100
- Plant response rating, Foxtail, Giant [11, 19]: 100
- Plant response rating, Foxtail, Giant [11, 18]: 100
- Plant response rating, Sedge, Umbrella [12, 20]: 0
- Plant response rating, Sedge, Umbrella [12, 22]: 40
- Plant response rating, Sedge, Umbrella [12, 21]: 70
- Plant response rating, Sedge, Umbrella [12, 23]: 0
- Plant response rating, Ducksalad [13, 20]: 0
- Plant response rating, Ducksalad [13, 22]: 50
- Plant response rating, Ducksalad [13, 21]: 50
- Plant response rating, Ducksalad [13, 23]: 0
- Plant response rating, Barnyardgrass [14, 20]: 0
- Plant response rating, Barnyardgrass [14, 22]: 0
- Plant response rating, Barnyardgrass [14, 21]: 40
- Plant response rating, Barnyardgrass [14, 23]: 0
